# Laboratory results published in article PMC8535490, “Biotransformation of Flavonoids Improves Antimicrobial and Anti-Breast Cancer Activities In Vitro” (Foods, 2021).
# Read-outs that look alike come from different tables or passages of the source.
# Tests used:
# [1] = test system: MCF-7 human breast cancer cells; experiment: Antiproliferative activity, methylene blue assay; format: cell-based; details: MCF-7 cells; for IC50: 72 h, mean ± SD, n = 3; for Increase in antiproliferation potency compared to unmethylated substrate: ratio of IC50 values
# Method: (§1) Analysis of the antiproliferative activity of the test compounds was performed according to Zhu et al., with some modifications. MCF-7 human breast cancer cells were provided by the Cell Resource Center of the Chinese Academy of Sciences (Shanghai, China). Cell proliferation and cytotoxicity of anticancer activity were assessed using the methylene blue assay. For cell proliferation and cytotoxicity, MCF-7 cells were culture in a 96-well plate at 1.5 × 10^5 cells/well and at 3 × 10^5 cells/well, respectively. Various concentrations (75–400 µM) of the test samples were added to a growth medium containing MCF-7 cells followed by cultivation for […]. Following incubation for 72 h, cell proliferation was measured with an absorbance of 570 nm using a microplate reader (Bio-Rad, Hercules, MA, USA), while cell cytotoxicity measurement was carried out 24 h after incubation.
# [2] = test system: S. aureus ATCC6538; experiment: Antimicrobial activity assay (broth culture in 96-well plate, CCK8 staining, MIC/MBC); format: cell-based, Staphylococcus aureus; details: for MIC / MBC: S. aureus ATCC6538, tested at 15–400 µM; for Growth inhibition: S. aureus ATCC 6538
# Method: (§2) Antimicrobial biological activities of the tested compounds were evaluated as Zhong et al., with some modifications. Gram-positive and -negative bacteria and fungi (S. aureus ATCC6538, E. coli ATCC25922, and C. albicans SC5314) were selected for evaluation in the present study. S. aureus ATCC6538 and E. coli ATCC25922 were cultured with Luria-Bertani medium, while for C. albicans SC5314, potato dextrose broth medium was used for 24 h at 37 °C (bacterial suspension in 1 × 10^6 CFU/mL). […] Each strain was, respectively, transferred into a 96-well plate at 100 µL/well (90 µL bacterial suspension and 10 µL sample solution) after adding different concentrations of samples, followed by incubation for 12–16 h. The optical density at 650 nm (OD650) of C. albicans SC5314 was measured after TTC staining, while S. aureus ATCC6538 and E. coli ATCC25922 were stained for CCK8 before measurement.
# [3] = test system: C. albicans SC5314; experiment: Antimicrobial activity assay (broth culture in 96-well plate, TTC staining, MIC/MBC); format: cell-based, Candida albicans; details: for MIC / MBC: tested at 15–400 µM
# Method: as §2
# [4] = test system: E. coli ATCC25922; experiment: Antimicrobial activity assay (broth culture in 96-well plate, CCK8 staining, MIC/MBC); format: cell-based, Escherichia coli; details: for MBC / MIC: Escherichia coli, tested at 15–400 µM; for MBC / MIC / Growth inhibition: E. coli ATCC25922
# Method: as §2
# [5] = test system: MCF-7 human breast cancer cells; experiment: Cytotoxicity, methylene blue assay; format: cell-based; details: at a concentration corresponding to the IC50 (hesperetin 150 μM), 24 h
# Method: as §1
# [6] = Candida albicans, C. albicans SC5314
# [7] = Candida albicans, C. albicans SC5314, read-out: MBC
Molecule,"IC50 ([1]; Homo sapiens, MCF7) [µM]",Increase in antiproliferation potency compared to unmethylated substrate [1],"MIC [3, 6] [µM]","MBC [3, 7] [µM]",Cytotoxicity on MCF-7 cells [5],Growth inhibition [2],Growth inhibition [4],other results
"COc1ccc2c(c1)O[C@H](c1ccc(O)cc1)CC2=O [Compound 1a, 7-methoxy-liquiritigenin]",11.2 ± 0.6,8.99 fold,25,> 400,Slight cytotoxicity,–,–,"Increase of antimicrobial activity compared to liquiritigenin ([2]; S. aureus ATCC6538, 250 μM): 148.77%; Increase of inhibitory effect compared to unmethylated counterpart ([2]; S. aureus ATCC6538, 250 μM): 1.49 fold; MIC [2]: 75 µM; MBC ([2]; Staphylococcus aureus): > 400 µM; MIC ([2]; Staphylococcus aureus): 75 µM; Increase (MIC) compared to the unmethylated substrate ([3]; C. albicans SC5314): 3 fold; Increase of antimicrobial activity compared to liquiritigenin ([3]; C. albicans SC5314, 200 μM): 765.64%; Increase of inhibitory effect compared to unmethylated counterpart ([3]; C. albicans SC5314, 200 μM): 7.65 fold; MIC ([3]; C. albicans SC5314): 25 µM; Increase of antimicrobial activity compared to liquiritigenin ([4]; E. coli ATCC25922, 400 μM): 54.41%; Increase of inhibitory effect compared to unmethylated counterpart ([4]; E. coli ATCC25922, 400 μM): 0.54 fold; MBC [4]: > 400 µM; MIC [4]: 15 µM"
"O=C1C[C@@H](c2ccc(O)cc2)Oc2cc(O)ccc21 [Compound 1, liquiritigenin, reference compound]",101 ± 1.83,–,25,> 400,Slight cytotoxicity,–,–,MBC ([2]; Staphylococcus aureus): > 400 µM; MIC ([2]; Staphylococcus aureus): 75 µM; MBC [4]: > 400 µM; MIC [4]: 25 µM
"O=C1C[C@@H](c2ccc(O)cc2)Oc2cc(O)cc(O)c21 [Compound 2, naringenin, reference compound]",126 ± 2.76,–,75,> 400,Slight cytotoxicity,failed to inhibit the growth,failed to inhibit the growth,–
"COc1cc(O)c2c(c1)O[C@H](c1ccc(OC)c(O)c1)CC2=O [Compound 3b, 7-methoxy-hesperetin]",30.7 ± 0.72,–,25,> 400,lowest,failed to inhibit the growth,failed to inhibit the growth,Cytotoxicity on MCF-7 cells ([5]; listed as 7-methoxyhesperetin): No cytotoxicity
"COc1ccc([C@@H]2CC(=O)c3c(O)cc(O)cc3O2)cc1OC [Compound 3a, 3’-methoxy-hesperetin]",10.5 ± 0.45,more than 14.35 fold,50,> 400,Slight cytotoxicity,failed to inhibit the growth,failed to inhibit the growth,–
"COc1ccc([C@@H]2CC(=O)c3c(O)cc(O)cc3O2)cc1O [Compound 3, hesperetin, reference compound]",> 150,–,75,> 400,Slight cytotoxicity,failed to inhibit the growth,failed to inhibit the growth,–
7-methoxy-naringenin [Compound 2a],–,1.34 fold,–,–,highest,failed to inhibit the growth,failed to inhibit the growth,"IC50 [1]: 93.6 ± 1.06 µM; Increase of highest antimicrobial activity compared to naringenin ([3]; C. albicans SC5314, highest activity): 182.12%; MBC ([3]; C. albicans SC5314): >400 >400 μM; MIC ([3]; C. albicans SC5314): 75 µM; Cytotoxicity on MCF-7 cells ([5]; listed as 7-methoxynaringenin): Slight cytotoxicity"
"COc1cc(O)c2c(c1)O[C@H](c1ccc(OC)c(OC)c1)CC2=O [Compound 3c, 7,3’-dimethoxy-hesperetin]",31 ± 1.44,–,75,> 400,Slight cytotoxicity,failed to inhibit the growth,failed to inhibit the growth,–
